Key:
[1] = Water solubility of acidic compound at 20° C.
Source text: This object is achieved pursuant to the invention by a condensation-crosslinkable dental material having a composition containing at least one alkoxysilyl-functional and/or hydroxysilyl-functional polyether a), at least one catalyst b), and optionally water c), with the at least one catalyst b) being selected from the group consisting of bases, salts, and any combinations thereof.

[2] = pKa of acidic compound in water
Source text: If polyfunctional acids are used, it is sufficient for at least one of the pKa values, preferably the pKa1 of the polyfunctional acid used, to lie within the aforementioned ranges.

[3] = Polyether solubility of acidic compound (20° C.); details: organic solvent or mixture

Row | Water solubility [1] | Structure (SMILES) | solubility ([1]; 20 °C, water) [mg/mL] | pKa [2] | solubility [3] [mg/mL]
1 | – | O=C1CC(=O)NC(=O)N1 [barbituric acid] | 142 | 4.01 | ≤ 2
2 | about 750 g/l | Cc1ccc(S(=O)(=O)O)cc1 [p-toluenesulfonic acid] | – | – | –
